Values of other authors, collected in PMC10783161 (RSC Advances, 2024).

Conditions: biphasic elimination, slower terminal phase

With `COc1cc([C@@H]2c3cc4c(cc3[C@@H](O[C@@H]3O[C@@H]5CO[C@@H](C)O[C@H]5[C@H](O)[C@H]3O)[C@H]3COC(=O)[C@H]23)OCO4)cc(OC)c1O` [ETP, etoposide] as the molecule, how does the terminal phase half-life read?
Its terminal phase half-life is 4 to 11 h.
